Test results taken from patent US11180483B2, “Substituted reverse pyrimidine Bmi-1 inhibitors” (PTC Therapeutics, Inc., priority 2012, dated 2021).

Experiments:
Bmi-1 = test: Sandwich ELISA Assay (Bmi-1 ELISA) in HT-1080 cells; assay type: cell-based
Procedure, shortened: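 Bmi-1 in lysates was measured by a three-antibody ELISA with TMB, OD450 minus OD570 reference, interpolated on a GST-tagged recombinant Bmi-1 standard curve, 0-8000 pg/mL. Lysates came from HT-1080 cells treated 40-48 h with compound, final DMSO 0.5%.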

SMILES | melting point [°C] | EC50 (Bmi-1) [nM]
Cc1cn2c(-c3nc(N)c(F)c(Nc4ccc(OC(F)F)cc4)n3)c(C)nc2c(C)n1 [Cpd 175, N-[4-(difluoromethoxy)phenyl]-5-fluoro-2-(2,6,8-trimethylimidazo[1,2-a]pyrazin-3-yl)pyrimidine-4,6-diamine] | 141 to 143 | 100 to 3000
Cc1nc2ccccc2n1-c1nc(N)cc(Nc2ccc3c(c2)OC(F)(F)O3)n1 [Cpd 206, N-(2,2-difluoro-1,3-benzodioxol-5-yl)-2-(2-methyl-1H-benzimidazol-1-yl)pyrimidine-4,6-diamine] | 141 to 142 | 10 to 100
Cc1cn2c(-c3nc(N)c(F)c(Nc4ccc(OC(F)F)c(F)c4)n3)c(C)nc2c(C)n1 [Cpd 176, N-[4-(difluoromethoxy)-3-fluorophenyl]-5-fluoro-2-(2,6,8-trimethylimidazo[1,2-a]pyrazin-3-yl)pyrimidine-4,6-diamine] | 140 to 141 | 100 to 3000
Cc1ccc(Nc2nc(-c3c(C)nc4ccc(F)cn34)nc(N)c2F)cc1 [Cpd 253, 5-fluoro-2-(6-fluoro-2-methylimidazo[1,2-a]pyridin-3-yl)-N-(4-methylphenyl)pyrimidine-4,6-diamine] | 210 to 212 | 1 to 10
Cc1nc2ccccc2n1-c1nc(N)cc(Nc2ccc3c(c2)OCO3)n1 [Cpd 205, N-(1,3-benzodioxol-5-yl)-2-(2-methyl-1H-benzimidazol-1-yl)pyrimidine-4,6-diamine] | 166 to 167 | 1 to 10
Nc1cc(Nc2ccc(OC(F)F)c(F)c2)nc(-c2c(C3CC3)nc3ccc(F)cn23)n1 [Cpd 75, 2-(2-cyclopropyl-6-fluoroimidazo[1,2-a]pyridin-3-yl)-N-[4-(difluoromethoxy)-3-fluorophenyl]pyrimidine-4,6-diamine] | 198 to 200 | 100 to 3000

The next lines start with the values.

melting point [°C] | EC50 (Bmi-1) [nM] | SMILES
136 to 138 | 10 to 100 | Cc1nc2ccc(F)cn2c1-c1nc(N)cc(Nc2ccc(OC(F)F)cc2)n1 [Cpd 69, N-[4-(difluoromethoxy)phenyl]-2-(6-fluoro-2-methylimidazo[1,2-a]pyridin-3-yl)pyrimidine-4,6-diamine]
204 to 206 | 10 to 100 | COc1ccc(Nc2nc(-c3c(C)nc4ccc(F)cn34)nc(N)c2F)cc1 [Cpd 252, 5-fluoro-2-(6-fluoro-2-methylimidazo[1,2-a]pyridin-3-yl)-N-(4-methoxyphenyl)pyrimidine-4,6-diamine]
166 to 168 | 100 to 3000 | Cc1cn2c(-c3nc(N)c(F)c(Nc4ccc(C(F)(F)F)cc4)n3)c(C)nc2c(C)n1 [Cpd 174, 5-fluoro-N-[4-(trifluoromethyl)phenyl]-2-(2,6,8-trimethylimidazo[1,2-a]pyrazin-3-yl)pyrimidine-4,6-diamine]
175 to 177 | 1 to 10 | Nc1cc(Nc2ccc(OC(F)F)cc2)nc(-n2c(C3CC3)nc3ccc(F)cc32)n1 [Cpd 143, 2-(2-cyclopropyl-6-fluoro-1H-benzimidazol-1-yl)-N-[4-(difluoromethoxy)phenyl]pyrimidine-4,6-diamine]
225 to 227 | 100 to 3000 | Cc1nc2ccc(F)cc2n1-c1nc(N)cc(Nc2ccc(Cl)c(F)c2)n1 [Cpd 267, N-(4-chloro-3-fluorophenyl)-2-(6-fluoro-2-methyl-1H-benzimidazol-1-yl)pyrimidine-4,6-diamine]
233 to 234 | 1 to 10 | COc1ccc(Nc2cc(N)nc(-n3c(C)nc4ccccc43)n2)cc1F [Cpd 207, N-(3-fluoro-4-methoxyphenyl)-2-(2-methyl-1H-benzimidazol-1-yl)pyrimidine-4,6-diamine]
270 to 271 | 100 to 3000 | Cc1nn(C)c(C)c1-c1nc(N)cc(Nc2ccc(C(F)(F)F)cc2)n1 [Cpd 70, N-[4-(trifluoromethyl)phenyl]-2-(1,3,5-trimethyl-1H-pyrazol-4-yl)pyrimidine-4,6-diamine]
